Results reported in patent publication US9540355B2, “Irciniastatin analogues” (priority 2013, dated 2017).

Key:
[1] = test system: A2058; assay: Cell growth inhibition assay (CellTiter-Glo); assay type: cell-based, human
Experimental: (§1) Cell Culture and Cell Growth Inhibition Assay.
(§2) The chosen cell lines are all human cancer cell lines except for the 4T1 murine breast cancer line, representing a wide variety of cancer types including breast (MDA-MB-453), kidney (A498), lung (H1975), pancreatic (PANC-1) and endometrial cancer (AN3CA, HEC-1A, and RL95-2), glioblastoma (U251 and U-87MG), melanoma (A2058 and LOXIMVI) and uterine sarcoma (MES-SA). All the cancer cell lines can be obtained from the American Type Culture Collection (ATCC, Manassas, Va., USA) with the exception of U251 which can be provided by the National Cancer Institute Tumor Repository (Frederick, Md.) and is cultured in the standard tissue culture media appropriate for each cell line. All the culture media are supplemented with 10% fetal bovine serum (FBS), 100 I.U./mL penicillin and 100 μg/mL streptomycin. For the cell growth inhibition assay, the cells are seeded in 96-well tissue culture plates at 500-3000 cells/well (seeding density empirically adjusted for each cell line based on growth rate optimization). The cells are allowed to attach for a minimum of 5 h prior to compound administration. The cells are incubated for a period of 4 days after compound addition. Following the incubation period, CellTiter-Glo reagent (Promega, Madison, Wis., USA) is added to all the wells to assess cell proliferation/viability. Luminescence is measured using an Envision microplate reader (Perkin Elmer, Waltham, Mass., USA). The IC50 values were calculated as the concentration which inhibited cell growth to 50% of DMSO control treated cell populations.

[2] = test system: H522-T1; assay: Cell growth inhibition assay (CellTiter-Glo); assay type: cell-based, human
Experimental: as §1, §2

[3] = test system: HCT-116; assay: Cell growth inhibition assay (CellTiter-Glo); assay type: cell-based, human
Experimental: as §1, §2

[4] = test system: IMR-90 human fibroblast cells; assay: IMR-90 cytotoxicity assay; assay type: cell-based; conditions: IMR-90, 72 h, quiescent non-dividing cells, 0.1% FBS, 3 days incubation, read-out: IC50 (nM) Quiescent IMP-90
Source text: IMR-90 Cytotoxicity Assay.
To evaluate the effect of compounds of the invention on non-proliferating normal cells, an in vitro cytotoxicity assay developed to distinguish between true antiproliferative activity and general cellular cytotoxicity unrelated to proliferation was used. Rudolph-Owen L A, Salvato K, Cheng C, Wu J, Towle M J and Littlefield B A: A 96-well plate cell-based assay to quantify undesired cytotoxic effects against quiescent non-dividing cells. Proc Amer Assoc Cancer Res 45: 264-265, 2004. In brief, IMR-90 human fibroblast cells, obtained from ATCC, were grown for 4 days to confluency in MEM containing 10% FBS and supplemented with L-glutamine, penicillin/streptomycin. After washing, the medium was replaced with complete MEM containing 0.1% FBS and the cells were cultured for 3 additional days to achieve complete quiescence. A compound of the invention or vehicle control was then added in the continued presence of 0.1% FBS, followed by incubation for 3 days at 37° C. Cell viability was assessed by the measurement of cellular ATPlevels using CellTiter-Glo reagent (Promega).

[5] = test system: BXPC-3; conditions: pancreas BXPC-3; cited from earlier work
[6] = test system: SF-268; conditions: CNS SF-268; cited from earlier work
[7] = test system: NCI-H460; conditions: lung NCI-H460; cited from earlier work
[8] = test system: KM20L2; conditions: colon KM20L2; cited from earlier work
[9] = test system: DU-145; conditions: prostate DU-145; cited from earlier work
[10] = test system: P388 murine lymphocytic leukemia cell line; conditions: cited from earlier work
[11] = test system: human umbilical vein endothelial cells (HUVEC); conditions: normal endothelial HUVEC; cited from earlier work
[12] = test system: CCRF-CEM; conditions: leukemia CCRF-CEM; cited from earlier work
[13] = test system: MOLT-4; conditions: leukemia MOLT-4; read-out: LC50 (the source's name); cited from earlier work
[14] = test system: RPMI-8226; conditions: leukemia RPMI-8226; read-out: LC50 (the source's name); cited from earlier work
[15] = test system: SR; conditions: leukemia SR; read-out: LC50 (the source's name); cited from earlier work
[16] = test system: LOX IMVI; conditions: melanoma LOX IMVI; read-out: LC50 (the source's name); cited from earlier work
[17] = test system: MALME-3M; conditions: melanoma MALME-3M; read-out: LC50 (the source's name); cited from earlier work
[18] = test system: SK-MEL-2; conditions: melanoma SK-MEL-2; read-out: LC50 (the source's name); cited from earlier work
[19] = test system: UACC-257; conditions: melanoma UACC-257; read-out: LC50 (the source's name); cited from earlier work
[20] = test system: HS 578T; conditions: breast cancer HS 578T; cited from earlier work
[21] = test system: MDA-MB-435; conditions: breast cancer MDA-MB-435; read-out: LC50 (the source's name); cited from earlier work
[22] = test system: NCI/ADR-RES; conditions: breast cancer NCI/ADR-RES; read-out: LC50 (the source's name); cited from earlier work
[23] = test system: HT29; conditions: colon cancer HT29; read-out: LC50 (the source's name); cited from earlier work
[24] = test system: SW-620; conditions: colon cancer SW-620; read-out: LC50 (the source's name); cited from earlier work
[25] = test system: several solid tumor cell lines; conditions: cited from earlier work
[26] = Homo sapiens, 96 h, 4 days incubation
[27] = ratio IC50[IMR-90]:IC50[tumor cell line]

SMILES: C=C(C)C[C@H](OC)[C@H](O)C(=O)N[C@@H](OC)[C@@H]1C[C@@H](O)C(C)(C)[C@@H](C[C@H](O)[C@@H](C)[C@H]2Cc3c(C)c(O)cc(O)c3C(=O)O2)O1 [Irciniastatin A, (+)-Irciniastatin A]
- IC50 [1, 26]: 0.4 nM
- Selectivity vs. IMR-90, A2058 [1, 27]: 68
- IC50 [2, 26]: 1 nM
- Selectivity vs. IMR-90, H522-T1 [2, 27]: 27
- IC50 [3, 26]: 4 nM
- Selectivity vs. IMR-90, HCT-116 [3, 27]: 7
- IC50 [4]: 27 nM
- Growth Inhibition of Cancer Cell Lines (GI50) [5]: 3.8 ng/mL
- Growth Inhibition of Cancer Cell Lines (GI50) [6]: 3.4 ng/mL
- Growth Inhibition of Cancer Cell Lines (GI50) [7]: <0.1 ng/mL
- Growth Inhibition of Cancer Cell Lines (GI50) [8]: 2.7 ng/mL
- Growth Inhibition of Cancer Cell Lines (GI50) [9]: 2.4 ng/mL
- Growth Inhibition of Cancer Cell Lines (GI50) [10]: 4.13 ng/mL
- Growth Inhibition of Cancer Cell Lines (GI50) [11]: <0.5 ng/mL
- LC50 [12]: > 25 µM
- CC50 [13]: > 25 µM
- CC50 [14]: > 25 µM
- CC50 [15]: > 25 µM
- CC50 [16]: > 25 µM
- CC50 [17]: < 0.0025 µM
- CC50 [18]: > 25 µM
- CC50 [19]: > 25 µM
- LC50 [20]: > 25 µM
- CC50 [21]: < 0.0025 µM
- CC50 [22]: 19 µM
- CC50 [23]: > 25 µM
- CC50 [24]: > 25 µM
- hollow fiber assay overall score ([25]; compounds considered active score 20 or higher): 34
- hollow fiber assay score against intraperitoneal fibers ([25]; intraperitoneal fibers): 28
- hollow fiber assay score against subcutaneous fibers ([25]; subcutaneous fibers): 6
